# In patent US9585879B2, “Heterocyclic GSK-3 allosteric modulators” (Consejo Superior de Investigaciones Cientificas (CSIC), priority 2011, dated 2017):
# Where two headings read alike, the source gives them in different places.
# Assays:
# GSK-3β [1] = type: biochemical, human
# Method: The ATP concentrations were varied from 1 to 50 µM, whereas the concentration of the GS-2 peptide was kept constant at 12.5 µM. The concentrations of inhibitor (compound 6) used are shown in the plot.
# The kinetic studies conducted by varying the ATP concentration from 1 to 50µM, and the concentration of inhibitor 6 from 5 to 10µM, were performed using the ADP-Glo™ Kinase Assay.
# GSK-3β [2] = experiment: Study of the inhibition of GSK-3β as a function of enzyme-inhibitor pre-incubation time; type: biochemical, human
# Method: In order to determine the binding mode of these compounds, different kinetic studies were performed, varying the reaction times and the ATP concentration and the substrate concentration.
# GSK-3β [3] = type: biochemical, human; remark: listed apart in the source
# Method: The GS-2 concentrations were varied from 15.5 to 100 µM, whereas the ATP concentration was kept constant at 1 µM. The concentrations of inhibitor (compound 6) used are shown in the plot.
# On the other hand, we also studied the dependence of GSK-3β activity in the presence of these inhibitors as a function of the concentration of the substrate, the GS-2 peptide, used in the assays.
# [4] = target: recombinant human GSK3 enzyme (GSK-3β); type: biochemical; conditions: Kinase-Glo, 1 μM ATP, 25 μM substrate, 30 min at 30 °C
# Method: Measurement of the Inhibition of GSK-3β
# The enzyme inhibition assays were performed using the luminometric methodology of kinase-Glo®. The recombinant human GSK3 enzyme (catalogue no. 14-306) was acquired from Upstate (Dundee, UK). The prephosphorylated polypeptide was synthesised by American Peptide Inc. (Sunnyvale, Calif.). The luminescent kinase kit (catalogue no. V6711) was obtained from Promega. The ATP and the other reagents were purchased from Sigma-Aldrich (St. Louis, Mo.).
# The assays were performed in buffer using 96-well plates. 10µl of the compound to be assayed (dissolved in DMSO at a concentration of 1 mM, and, in turn, dissolved in buffer to the concentration necessary for the experiment) and 10µl (20 ng) of the enzyme are added to each well, followed by 20µl of buffer containing 25µM of the substrate and 1µM of ATP. […] Following a half-hour incubation at 30° C., the enzymatic reaction is stopped with 40µl of the kinase-Glo® reagent. The luminescence is measured after ten minutes, using a POLARstar Optima multimode reader. The activity is proportional to the difference between the total ATP and the ATP consumed. The inhibitory activities were calculated as a function of the maximum activity, measured in the absence of inhibitor.
# [5] = GS-2 15.5 to 100 μM, ATP 1 μM, inhibitor 5 to 10 μM
Structure (SMILES),Michaelis-Menten constant (Km) in the presence of the inhibitor (GSK-3β [1]),"mode of inhibition with respect to ATP (GSK-3β [1]; ATP 1 to 50 μM, GS-2 12.5 μM, inhibitor 5 to 10 μM)","maximum enzyme activity (Vmax) in the presence of the inhibitor (GSK-3β [1]; ATP 1 to 50 μM, inhibitor 5 to 10 μM)","% inhibition of GSK-3β (GSK-3β [2]; [Comp. 6] 5 μM, pre-incubation time E + I 0 min) [%]","% inhibition of GSK-3β (GSK-3β [2]; [Comp. 6] 5 μM, pre-incubation time E + I 5 min) [%]","% inhibition of GSK-3β (GSK-3β [2]; [Comp. 6] 5 μM, pre-incubation time E + I 10 min) [%]","% inhibition of GSK-3β (GSK-3β [2]; [Comp. 6] 10 μM, pre-incubation time E + I 0 min) [%]","% inhibition of GSK-3β (GSK-3β [2]; [Comp. 6] 10 μM, pre-incubation time E + I 5 min) [%]","% inhibition of GSK-3β (GSK-3β [2]; [Comp. 6] 10 μM, pre-incubation time E + I 10 min) [%]","reversibility of GSK-3β inhibition (GSK-3β [2]; different enzyme incubation times, two inhibitor concentrations)",Michaelis-Menten constant (Km) in the presence of the inhibitor (GSK-3β [3]),maximum enzyme activity (Vmax) in the presence of the inhibitor (GSK-3β [3]; [5]),mode of inhibition with respect to substrate GS-2 (GSK-3β [3]; [5]),IC50 [4] [µM]
"CCCCCCCCCCCC(=O)NNC(=O)c1c(O)c2ccccc2n(CC)c1=O [Compound 6, N′-Dodecanoyl-1-ethyl-4-hydroxy-2-oxo-1,2-dihydroquinoline-3-carbohydrazide]",remains invariable,non-ATP-competitive inhibitor,decreases,27.42,30.31,30.18,61.4,63.04,62.26,reversible inhibitor,remains invariable,decreases,substrate-non-competitive inhibitor,–
"CCCCCCCCCCCC(=O)N(Cc1ccccc1)NC(=O)c1c(O)c2ccccc2n(Cc2ccccc2)c1=O [Compound 63, N′,1-Dibenzyl-N′-dodecanoyl-4-hydroxy-2-oxo-1,2-dihydroquinoline-3-carbohydrazide]",–,–,–,–,–,–,–,–,–,–,–,–,–,6.84 ± 0.51
"CCCCCCCCCCCC(=O)NNC(=O)c1c(O)c2ccccc2n(C)c1=O [Compound 4, N′-Dodecanoyl-4-hydroxy-1-methyl-2-oxo-1,2-dihydroquinoline-3-carbohydrazide]",–,–,–,–,–,–,–,–,–,–,–,–,–,7.35 ± 0.23
